Laboratory results published in patent publication US6998383B2, “Inhibitors of receptor activator of NF-κB and uses thereof” (Research Development Corporation, priority 2001, dated 2006).

Legend:
[1] = system: bone marrow-derived mouse monocytes; assay: RANKL and M-CSF-mediated osteoclast differentiation in bone marrow-derived mouse monocytes (TRAP staining); type: cell-based
Method: After 6-7 days, the cells were fixed and stained for TRAP. The numbers of multi-nucleated, TRAP positive osteoclasts were counted.
Mouse-derived monocytes were plated in 48-well plates and costimulated as in FIG. 3A with murine M-CSF (10 ng/ml) and RANKL (30 ng/ml) in the absence (left panel) or presence of the indicated peptides. After 6-7 days, the cells were fixed and stained for TRAP. A representative field from each well was taken at a magnification of 10×.
Primary bone marrow monocytes (BM) or RAW264.7 cells were cultured in 48-well dishes at a density of 1×10^5 cells/well or 2×10^3 cells/well, and then treated with the indicated factors at the beginning of the culture and during a medium change on day 3. Osteoclast formation was assessed by counting the total number of multi-nucleated (>3 nuclei), TRAP-positive cells present per well between day 7 and 10 (BM) or on day 5 (RAW264.7) (30).
To further support the results obtained from the RAW264.7 cell line, the ability of these peptides to inhibit RANKL-mediated osteoclast differentiation in primary mouse-derived monocytes was tested. Costimulation of bone marrow-derived monocytes with RANKL and M-CSF cause osteoclast differentiation after 7-10 days, as determined by staining multi-nucleated, TRAP positive osteoclasts (30). Similar to the results with RAW264.7 cells, both L-T6DP-1 and L-T6DP-2 inhibited the development of TRAP positive osteoclast in a dose-dependent manner and L-T6DP-1 was much more efficient (FIGS. 3A and 3B).

NF-κB = assay: RANKL-induced NF-κB activation in RAW264.7 cells (gel mobility shift assay); type: cell-based, mouse; conditions: peptide pre-treatment 5 h, RANKL 10 nM 15 min (FIG. 4A)
Method: RAW264.7 cells were plated in 6-well plates and treated with the indicated peptides for 5 h, then treated with RANKL (10 nM) for 15 mm. Nuclear and cytoplasmic extracts were prepared and a gel mobility shift assays was performed with 8 μg of nuclear extracts as described below.
Nuclear extracts were prepared from transfected cells essentially as described (34). Equivalent amounts of nuclear protein were used in an EMSA reaction with ^32P-labeled NF-κB oligonucleotide from HIV-LTR as described (34). NF-κB activation was quantitated using a PhosphoImager and Imagequant Software.
A mutant form of the receptor activator of NF-κB which contains only the TRAF6 binding domain is sufficient to activate NF-κB (8), and a dominant negative TRAF6 inhibits RANK-mediated NF-κB activation in 293 cells (9). To investigate the effect of the TRAF6 binding peptides on RANKL-induced NF-κB activation, NF-κB activation was examined in RAW264.7 cells that activated NF-κB when stimulated with RANKL (37). RANKL-stimulated RAW264.7 cells activated NF-κB as indicated by a gel mobility shift assay (FIG. 4A).

[2] = molecular target: T1, TRAF6 binding to the RANK cytoplasmic domain (Mus musculus, UniProt P70196); assay: Competitive GST-pull down assay, TRAF6 binding to RANK cytoplasmic domain; conditions: 100 μM peptide, FLAG-TRAF6 293 cell extract, GST-RANK cytoplasmic domain (FIG. 4C)
T1 construct: expressed in transfected cells; host or cells: human 293 cells (TRAF lysate); The GST-RANK fusion was purified as previously described
T1 sequence (P70196 1-530): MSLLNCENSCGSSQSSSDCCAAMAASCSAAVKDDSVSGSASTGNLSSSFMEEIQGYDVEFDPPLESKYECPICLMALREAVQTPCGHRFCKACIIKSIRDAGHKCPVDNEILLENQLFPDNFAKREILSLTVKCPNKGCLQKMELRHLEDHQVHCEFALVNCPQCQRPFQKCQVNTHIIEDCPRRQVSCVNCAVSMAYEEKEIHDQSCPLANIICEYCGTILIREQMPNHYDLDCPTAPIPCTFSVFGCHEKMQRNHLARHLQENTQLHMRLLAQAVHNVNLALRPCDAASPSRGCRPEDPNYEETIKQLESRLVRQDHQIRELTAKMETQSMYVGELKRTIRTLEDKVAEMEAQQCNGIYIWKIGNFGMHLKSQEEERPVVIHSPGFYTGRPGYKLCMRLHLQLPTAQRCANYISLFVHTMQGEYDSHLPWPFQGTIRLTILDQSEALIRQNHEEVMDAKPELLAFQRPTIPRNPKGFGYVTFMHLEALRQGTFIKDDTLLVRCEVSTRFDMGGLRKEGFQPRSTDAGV
Method: Cellular extracts from human 293 cells transfected with either FLAG-TRAF2, -TRAF5, or -TRAF6 were mixed with GST or GST-RANKed in the absence or presence of 100 μM of the indicated peptides. A GST-pull down assay was performed as described below. The bound TRAFs were visualized by immunoblotting with anti-FLAG antibodies.
Equivalent amounts of GST or GST-RANK cytoplasmic domain (GST-RANKed) fusion protein attached to 20 μl of glutathione agarose beads were mixed with lysates (50 μg) from 293 cells programmed to express the epitope-tagged TRAF protein and the indicated peptides in binding buffer (20 mM TRIS, pH 8, 150 mM NaCl, 1 mM DTT, 2 mM EDTA, and 0.1% NP-40) and allowed to rotate for 1 h at 4° C. The beads were collected by centrifugation, washed three times in binding buffer, and then washed once in low-salt buffer (20 mM TRIS, pH 8, 50 mM NaCl, and 1 mM DTT). Bound proteins were eluted with addition of SDS-sample buffer and boiled. The eluted proteins were subjected to 7.5% SDS-PAGE and western blot analysis was performed with anti-FLAG antibodies.
The cytoplasmic domain of RANK interacts with many TRAF molecules, including TRAF1, 2, 3, 5, and 6 (7-9, 11, 12). While TRAF1, 2, 3, and 5 interact with the c-terminal tail of receptor activator of NF-κB, TRAF6 interacts with a membrane proximal region of the cytoplasmic domain of the receptor activator of NF-κB. […]

Substance: L-T6DP-1: Kaposi fibroblast growth factor signal sequence hydrophobic domain attached to murine RANK peptide containing the known TRAF6 binding domain (AAVALLPAVLLALLAPRKIPTEDEYTDRPSQPST; PEPTIDE Peptide L-T6Bp-1)
- development of TRAP positive osteoclasts ([1]; M-CSF 10 ng/ml and RANKL 30 ng/ml (FIGS. 3A, 3B)): inhibited
- multi-nucleated osteoclasts ([1]; M-CSF and RANKL, 30 μM peptide, cells still TRAP positive (FIG. 3B)): multi-nucleated osteoclast were not observed
- osteoclasts ([1]; M-CSF and RANKL, 100 μM peptide (FIG. 3B)): no osteoclasts were observed
- RANKL-induced NF-κB activation (NF-κB): suppressed in a dose-dependent manner
- TRAF6 interaction with the cytoplasmic domain of RANK [2]: inhibited
